Test results taken from PubChem BioAssay AID256 (DTP/NCI, 2004).
Where “and” joins values, the source holds several entries; their conditions need not be identical. Equal values may be shown once. Inconclusive results and toxic doses are left out.

Tested on: CD2F1 mice, L1210 leukemia ip, survival T/C
Test: NCI In Vivo Anticancer Drug Screen. Data for tumor model L1210 Leukemia (intraperitoneal) in CD2F1 (CDF1) mice
Conditions: higher = longer survival
Procedure, shortened: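 Compound-dosed mice with transplantable tumor versus matched vehicle controls; endpoint ratio T/C reported.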

[1] = endpoint: mean survival time, dose: 100.0 mg/kg/injection, schedule: Q01DX001 (ip), vehicle: saline
[2] = endpoint: mean survival time, dose: 200.0 mg/kg/injection, schedule: Q01DX001 (ip), vehicle: saline
[3] = endpoint: mean survival time, dose: 100.0 mg/kg/injection, schedule: Q01DX009 (ip), vehicle: saline with Tween-80
[4] = endpoint: mean survival time, dose: 200.0 mg/kg/injection, schedule: Q01DX009 (ip), vehicle: saline with Tween-80
[5] = endpoint: mean survival time, dose: 400.0 mg/kg/injection, schedule: Q01DX001 (ip), vehicle: saline
[6] = endpoint: mean survival time, dose: 100.0 mg/kg/injection, schedule: Q04DX003 (ip), vehicle: Klucel (hydroxypropylcellulose) (HPC)
[7] = endpoint: mean survival time, dose: 200.0 mg/kg/injection, schedule: Q04DX003 (ip), vehicle: Klucel (hydroxypropylcellulose) (HPC)
[8] = endpoint: mean survival time, dose: 400.0 mg/kg/injection, schedule: Q04DX003 (ip), vehicle: Klucel (hydroxypropylcellulose) (HPC)

SMILES: CC[S+](CC)CC
- T/C (endpoint: mean survival time, dose: 50.0 mg/kg/injection, schedule: Q01DX009 (ip), vehicle: saline): 100 % of control
- T/C (endpoint: mean survival time, dose: 100.0 mg/kg/injection, schedule: Q01DX009 (ip), vehicle: saline): 97 % of control

SMILES: CCn1cnc2c(SC3CCCC3)ncnc21
- T/C (endpoint: mean survival time, dose: 100.0 mg/kg/injection, schedule: Q01DX001 (ip), vehicle: carboxymethylcellulose (CMC)): 112 % of control
- T/C (endpoint: mean survival time, dose: 200.0 mg/kg/injection, schedule: Q01DX001 (ip), vehicle: carboxymethylcellulose (CMC)): 108 % of control
- T/C (endpoint: mean survival time, dose: 400.0 mg/kg/injection, schedule: Q01DX001 (ip), vehicle: carboxymethylcellulose (CMC)): 121 % of control

SMILES: Nn1cnnc1
- T/C [1]: 98 % of control
- T/C [2]: 93 % of control

SMILES: CC(=O)NCc1cc(CNC(C)=O)c(C)cc1C
- T/C [3]: 98 % of control
- T/C (endpoint: mean survival time, dose: 100.0 mg/kg/injection, schedule: Q04DX003 (ip), vehicle: saline with Tween-80): 95 % of control
- T/C [4]: 88 % of control
- T/C (endpoint: mean survival time, dose: 200.0 mg/kg/injection, schedule: Q04DX003 (ip), vehicle: saline with Tween-80): 91 % of control
- T/C (endpoint: mean survival time, dose: 400.0 mg/kg/injection, schedule: Q01DX009 (ip), vehicle: saline with Tween-80): 95 % of control
- T/C (endpoint: mean survival time, dose: 400.0 mg/kg/injection, schedule: Q04DX003 (ip), vehicle: saline with Tween-80): 87 % of control

SMILES: CS(=O)(=O)OCC1C(COS(C)(=O)=O)N(S(C)(=O)=O)S(=O)N1S(C)(=O)=O (stereo not drawn)
- T/C [1]: 100 % of control
- T/C (endpoint: mean survival time, dose: 100.0 mg/kg/injection, schedule: Q04DX003 (ip), vehicle: saline): 111 % of control
- T/C [2]: 95 % of control
- T/C (endpoint: mean survival time, dose: 200.0 mg/kg/injection, schedule: Q04DX003 (ip), vehicle: saline): 108 % of control
- T/C [5]: 94 % of control
- T/C (endpoint: mean survival time, dose: 400.0 mg/kg/injection, schedule: Q04DX003 (ip), vehicle: saline): 91 % of control

SMILES: CCC1(c2ccc(O)cc2)C(=O)NC(=O)NC1=O
- T/C [1]: 96 % of control
- T/C [2]: 89 % of control
- T/C [5]: 96 % of control

SMILES: CCN(C(=O)c1ccccc1Cl)C(c1ccco1)P(=O)(c1ccccc1)c1ccccc1 (stereo not drawn)
- T/C [3]: 90 % of control
- T/C [4]: 107 % of control

SMILES: N#Cc1cnn2ccn(C3OC(CO)C(O)C3O)c12 (stereo not drawn)
- T/C (endpoint: median survival time, dose: 9.38 mg/kg/injection, schedule: Q01DX005 (ip), vehicle: water): 97 % of control
- T/C (endpoint: median survival time, dose: 18.75 mg/kg/injection, schedule: Q01DX005 (ip), vehicle: water): 100 % of control
- T/C (endpoint: median survival time, dose: 37.5 mg/kg/injection, schedule: Q01DX005 (ip), vehicle: water): 98 % of control
- T/C (endpoint: median survival time, dose: 75.0 mg/kg/injection, schedule: Q01DX005 (ip), vehicle: water): 98 % of control
- T/C (endpoint: median survival time, dose: 150.0 mg/kg/injection, schedule: Q01DX005 (ip), vehicle: water): 97 % of control

SMILES: COC(=O)C1CCOC1=O (stereo not drawn)
- T/C (endpoint: mean survival time, dose: 100.0 mg/kg/injection, schedule: Q04DX002 (ip), vehicle: saline): 98 % of control
- T/C (endpoint: mean survival time, dose: 200.0 mg/kg/injection, schedule: Q04DX002 (ip), vehicle: saline): 98 % of control
- T/C (endpoint: mean survival time, dose: 400.0 mg/kg/injection, schedule: Q04DX002 (ip), vehicle: saline): 102 % of control

SMILES: COC1OC(COC(=O)c2ccccc2)C(N(C)C(C)=O)C1OC(=O)c1ccccc1 (stereo not drawn)
- T/C (endpoint: mean survival time, dose: 75.0 mg/kg/injection, schedule: Q01DX001 (ip), vehicle: other): 97 % of control
- T/C (endpoint: mean survival time, dose: 150.0 mg/kg/injection, schedule: Q01DX001 (ip), vehicle: other): 103 % of control
- T/C (endpoint: mean survival time, dose: 300.0 mg/kg/injection, schedule: Q01DX001 (ip), vehicle: other): 91 % of control

SMILES: Nc1nc2ccc(CSc3ccc(C(=O)NC(CCC(=O)O)C(=O)O)cc3)nc2c(=O)[nH]1 (stereo not drawn)
- T/C (endpoint: mean survival time, dose: 0.5 mg/kg/injection, schedule: Q01DX005 (ip), vehicle: sodium bicarbonate): 103 % of control and 106 % of control
- T/C (endpoint: mean survival time, dose: 1.0 mg/kg/injection, schedule: Q01DX005 (ip), vehicle: sodium bicarbonate): 97 % of control and 106 % of control
- T/C (endpoint: mean survival time, dose: 2.0 mg/kg/injection, schedule: Q01DX005 (ip), vehicle: sodium bicarbonate): 97 % of control and 108 % of control
- T/C (endpoint: mean survival time, dose: 4.0 mg/kg/injection, schedule: Q01DX005 (ip), vehicle: sodium bicarbonate): 101 % of control and 106 % of control
- T/C (endpoint: mean survival time, dose: 8.0 mg/kg/injection, schedule: Q01DX005 (ip), vehicle: sodium bicarbonate): 97 % of control and 108 % of control
- T/C (endpoint: mean survival time, dose: 16.0 mg/kg/injection, schedule: Q01DX005 (ip), vehicle: sodium bicarbonate): 102 % of control and 103 % of control

SMILES: Nc1nc(Nc2ccc(C(=O)O)cc2)n[nH]1
- T/C (endpoint: mean survival time, dose: 100.0 mg/kg/injection, schedule: Q01DX001 (ip), vehicle: saline sonified): 96 % of control
- T/C (endpoint: mean survival time, dose: 100.0 mg/kg/injection, schedule: Q01DX009 (ip), vehicle: saline sonified): 105 % of control
- T/C (endpoint: mean survival time, dose: 200.0 mg/kg/injection, schedule: Q01DX001 (ip), vehicle: saline sonified): 104 % of control
- T/C (endpoint: mean survival time, dose: 200.0 mg/kg/injection, schedule: Q01DX009 (ip), vehicle: saline sonified): 96 % of control
- T/C (endpoint: mean survival time, dose: 400.0 mg/kg/injection, schedule: Q01DX001 (ip), vehicle: saline sonified): 96 % of control
- T/C (endpoint: mean survival time, dose: 400.0 mg/kg/injection, schedule: Q01DX009 (ip), vehicle: saline sonified): 88 % of control

SMILES: NC(=O)c1cn(C2CC(O)C(CO)O2)c2ncnc(N)c12 (stereo not drawn)
- T/C (endpoint: mean survival time, dose: 0.03 mg/kg/injection, schedule: Q01DX009 (ip), vehicle: water): 93 % of control
- T/C (endpoint: mean survival time, dose: 0.06 mg/kg/injection, schedule: Q01DX009 (ip), vehicle: water): 93 % of control
- T/C (endpoint: mean survival time, dose: 0.13 mg/kg/injection, schedule: Q01DX009 (ip), vehicle: water): 94 % of control
- T/C (endpoint: mean survival time, dose: 0.25 mg/kg/injection, schedule: Q01DX009 (ip), vehicle: water): 98 % of control
- T/C (endpoint: mean survival time, dose: 0.5 mg/kg/injection, schedule: Q01DX009 (ip), vehicle: water): 102 % of control
- T/C (endpoint: mean survival time, dose: 1.0 mg/kg/injection, schedule: Q01DX009 (ip), vehicle: water): 98 % of control
- T/C (endpoint: mean survival time, dose: 2.0 mg/kg/injection, schedule: Q01DX009 (ip), vehicle: water): 100 % of control
- T/C (endpoint: mean survival time, dose: 4.0 mg/kg/injection, schedule: Q01DX009 (ip), vehicle: water): 104 % of control
- T/C (endpoint: mean survival time, dose: 5.0 mg/kg/injection, schedule: Q01DX009 (ip), vehicle: water): 108 % of control
- T/C (endpoint: mean survival time, dose: 8.0 mg/kg/injection, schedule: Q01DX009 (ip), vehicle: water): 100 % of control
- T/C (endpoint: mean survival time, dose: 10.0 mg/kg/injection, schedule: Q01DX009 (ip), vehicle: water): 99 % of control
- T/C (endpoint: mean survival time, dose: 16.0 mg/kg/injection, schedule: Q01DX009 (ip), vehicle: water): 98 % of control
- T/C (endpoint: mean survival time, dose: 20.0 mg/kg/injection, schedule: Q01DX009 (ip), vehicle: water): 104 % of control
- T/C (endpoint: mean survival time, dose: 40.0 mg/kg/injection, schedule: Q01DX009 (ip), vehicle: water): 101 % of control
- T/C (endpoint: mean survival time, dose: 80.0 mg/kg/injection, schedule: Q01DX009 (ip), vehicle: water): 103 % of control
- T/C (endpoint: mean survival time, dose: 160.0 mg/kg/injection, schedule: Q01DX009 (ip), vehicle: water): 104 % of control

SMILES: O=C(O)C1CCCCC1C(=O)O.[NH-]C1CCCCC1[NH-].[Pt+2] (stereo not drawn)
- T/C (endpoint: mean survival time, dose: 3.13 mg/kg/injection, schedule: Q04DX003 (ip), vehicle: other): 106 % of control
- T/C (endpoint: mean survival time, dose: 6.25 mg/kg/injection, schedule: Q04DX003 (ip), vehicle: other): 106 % of control
- T/C (endpoint: mean survival time, dose: 12.5 mg/kg/injection, schedule: Q04DX003 (ip), vehicle: other): 116 % of control
- T/C (endpoint: mean survival time, dose: 100.0 mg/kg/injection, schedule: Q04DX003 (ip), vehicle: other): 187 % of control
- T/C (endpoint: mean survival time, dose: 200.0 mg/kg/injection, schedule: Q04DX003 (ip), vehicle: other): 168 % of control

SMILES: COC(=O)c1ccc(N2C(=O)C=CC2=O)cc1
- T/C (endpoint: mean survival time, dose: 1.5 mg/kg/injection, schedule: Q01DX009 (ip), vehicle: saline with Tween-80): 108 % of control
- T/C (endpoint: mean survival time, dose: 3.0 mg/kg/injection, schedule: Q01DX009 (ip), vehicle: saline with Tween-80): 108 % of control

SMILES: CN(CCCN(C)N=Nc1ccccc1C(=O)O)N=Nc1ccccc1C(=O)O
- T/C [6]: 102 % of control
- T/C [7]: 100 % of control
- T/C [8]: 98 % of control

SMILES: c1ccc(Cc2ccccc2-c2ccccc2)cc1
- T/C [6]: 89 % of control
- T/C [7]: 89 % of control
- T/C [8]: 93 % of control

SMILES: CC1(O)CC23CC(O)C4(O)C(CC(O)C4(C)C)C(C)(O)C2CCC1C3O (stereo not drawn)
- T/C (endpoint: median survival time, dose: 0.06 mg/kg/injection, schedule: Q01DX009 (ip), vehicle: Klucel (hydroxypropylcellulose) (HPC)): 97 % of control
- T/C (endpoint: median survival time, dose: 0.12 mg/kg/injection, schedule: Q01DX009 (ip), vehicle: Klucel (hydroxypropylcellulose) (HPC)): 96 % of control
- T/C (endpoint: median survival time, dose: 0.25 mg/kg/injection, schedule: Q01DX009 (ip), vehicle: Klucel (hydroxypropylcellulose) (HPC)): 102 % of control
- T/C (endpoint: median survival time, dose: 0.5 mg/kg/injection, schedule: Q01DX009 (ip), vehicle: Klucel (hydroxypropylcellulose) (HPC)): 97 % of control

SMILES: Nc1ccccc1C(=O)C/C=C/c1ccccc1
- T/C (endpoint: mean survival time, dose: 100.0 mg/kg/injection, schedule: Q01DX001 (ip), vehicle: saline with Tween-80): 95 % of control
- T/C (endpoint: mean survival time, dose: 200.0 mg/kg/injection, schedule: Q01DX001 (ip), vehicle: saline with Tween-80): 91 % of control
- T/C (endpoint: mean survival time, dose: 400.0 mg/kg/injection, schedule: Q01DX001 (ip), vehicle: saline with Tween-80): 87 % of control
